This experiment deals with T1, human 5-HT6 receptor (Homo sapiens, UniProt P50406).
T1 construct: host or cells: CHO-K1 cells, stably transfected; membranes prepared in house
As to the kind of experiment: Human 5-HT6 Receptor Binding Assay ([3H]LSD displacement, scintillation beads). Conditions: membranes of CHO-K1 cells with recombinant human 5-HT6, 4 nM [3H]LSD; Table 1, class symbols; read-out: h5-HT6 (Ki).

SMILES strings stand for the structures. Counter-ions that a name gives are not always drawn. A value given as a limit tells only on which side of the number the result lay.

T1 sequence (P50406 whole entry): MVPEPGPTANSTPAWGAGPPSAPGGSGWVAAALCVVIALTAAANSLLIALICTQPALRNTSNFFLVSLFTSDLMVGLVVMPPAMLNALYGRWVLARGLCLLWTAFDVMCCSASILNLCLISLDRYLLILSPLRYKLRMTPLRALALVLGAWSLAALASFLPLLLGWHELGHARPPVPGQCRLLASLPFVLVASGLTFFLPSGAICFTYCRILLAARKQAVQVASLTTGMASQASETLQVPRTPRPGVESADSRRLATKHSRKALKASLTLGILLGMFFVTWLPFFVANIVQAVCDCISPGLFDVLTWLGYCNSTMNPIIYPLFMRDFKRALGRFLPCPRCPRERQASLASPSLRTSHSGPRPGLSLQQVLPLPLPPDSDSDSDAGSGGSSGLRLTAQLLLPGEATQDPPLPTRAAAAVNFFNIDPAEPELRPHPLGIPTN

By Ki is commonly meant the equilibrium dissociation constant of an inhibitor or competing ligand from its target. On to `CC1OCCC12NCCc1c2oc2cc(S(=O)(=O)c3cccc(F)c3)ccc12` (single isomer, unassigned) [Example 58, 7-[(3-Fluorophenyl)sulfonyl]-2′-methyl-3,4,4′,5′-tetrahydro-2H-spiro[1-benzofuro[2,3-c]pyridine-1,3′-furan]], for which the Ki was < 0.5 µM.

In the case of `CC(=O)NCC1NCCc2c1oc1cc(S(=O)(=O)c3cccc(Cl)c3)ccc21` (racemic) [Example 539, N-({7-[(3-chlorophenyl)sulfonyl]-1,2,3,4-tetrahydro[1]benzofuro[2,3-c]pyridin-1-yl}methyl)acetamide], the inhibition constant Ki was < 0.5 µM.

For `CC(C)Oc1cccc(S(=O)(=O)c2ccc3c4c(oc3c2)CNCC4)c1` [Example 217], the Ki is < 0.5 µM.

Regarding `O=S(=O)(c1ccc(Oc2ccccc2)cc1)c1ccc2c3c(oc2c1)CNCC3` [Example 201], the Ki was < 0.5 µM.

On to `O=S(=O)(c1cccc(Cl)c1)c1ccc2c3c(oc2c1)C(C1CCOCC1)NCC3` (centres unmarked) [Example 500], for which the Ki was < 0.5 µM.

Take `Cc1ccc(S(=O)(=O)Oc2ccc3c(c2)OC2CNCCC32)cc1Cl` (centres unmarked) [Example 659]: the Ki was > 1 µM.

In the case of `O=S(=O)(c1ccc2c3c(oc2c1)CNCC3)c1ccccn1` [Example 345], the Ki is < 0.5 µM.

For `CC1(C)NCCc2c1oc1cc(S(=O)(=O)c3cccnc3C(F)(F)F)ccc21` [Example 378], the Ki is < 0.5 µM.

As for `O=S(=O)(c1ccc2c(c1)OC1CNCCC21)C1CCCCC1` (centres unmarked) [Example 154], the Ki is > 1 µM.

With `[O-][S+](c1cccc(F)c1)c1ccc2c(c1)OC1CNCCC21` (centres unmarked) [Example 625, 7-[(3-Fluorophenyl)sulfinyl]-1,2,3,4,4a,9a-hexahydro[1]benzofuro[2,3-c]pyridine trifluoroacetic acid salt], the Ki was < 0.5 µM.

`CC12CCN(C3CCCCC3)CC1Oc1ccc(OS(=O)(=O)Cc3ccccc3)cc12` (centres unmarked) [Example 807]: the Ki was > 1 µM.

As for `COc1cccc(S(=O)(=O)c2cccc3c2OC2CNCCC32)c1` (centres unmarked) [Example 182], the Ki was < 0.5 µM.

As for `O=S(=O)(c1cccc(Oc2ccccn2)c1)c1ccc2c(c1)OC1CNCCC21` (centres unmarked) [Example 579], the inhibition constant Ki was < 0.5 µM.

In the case of `CC1(CO)NCCc2c1oc1cc(S(=O)(=O)c3ccccc3)ccc21` (centres unmarked) [Example 525], the Ki is < 0.5 µM.

On to `CC12CCNCC1Oc1ccc(OS(=O)(=O)c3ccc(C(F)(F)F)cc3)cc12` (centres unmarked) [Example 778], for which the Ki is > 1 µM.

As to `COc1ccc(OC)c(S(=O)(=O)Oc2ccc3c(c2)OC2CNCCC32)c1` (centres unmarked) [Example 670], the Ki is < 0.5 µM.

As for `O=S(=O)(c1ccc2c(c1)OC1CNCCC21)c1cc(F)cc(F)c1F` (centres unmarked) [Example 412], the Ki is < 0.5 µM.

Take `COc1cc(S(=O)(=O)c2ccc3c4c(oc3c2)C(C)(C)NCC4)c[n+]([O-])c1` [Example 369]: the Ki was > 1 µM.

With `CC(C)COc1cc(F)cc(S(=O)(=O)c2ccc3c(c2)OC2CNCCC32)c1` (centres unmarked) [Example 414], the inhibition constant (Ki) is < 0.5 µM.

Regarding `O=S(=O)(c1cc(F)cc(F)c1)c1ccc2c(c1)OC1CNCCC21` (centres unmarked) [Example 158], the Ki was < 0.5 µM.

For `COc1cc2c(cc1OC)CN(S(=O)(=O)c1ccc3c(c1)C1CCNCC1O3)CC2` (centres unmarked) [Example 859], the inhibition constant (Ki) is > 1 µM.

Take `CC1OCCC12NCCc1c2oc2cc(S(=O)(=O)c3cccc(F)c3)ccc12` (single isomer, unassigned) [Example 59, 7-[(3-Fluorophenyl)sulfonyl]-2′-methyl-3,4,4′,5′-tetrahydro-2H-spiro[1-benzofuro[2,3-c]pyridine-1,3′-furan]]: the inhibition constant (Ki) was < 0.5 µM.

On to `O=S(=O)(c1ccc(Cl)c(C(F)(F)F)c1)c1ccc2c3c(oc2c1)CNCC3` [Example 210], for which the Ki was < 0.5 µM.

As to `COc1cc(OCC2CCOCC2)cc(S(=O)(=O)c2ccc3c(c2)OC2CNCCC32)c1` (centres unmarked) [Example 584], the Ki is < 0.5 µM.

As to `O=S(=O)(Oc1ccc2c(c1)C1CCNCC1O2)c1cccc(Cl)c1Cl` (centres unmarked) [Example 740], the Ki is < 0.5 µM.

For `CC(C)Oc1cccc(S(=O)(=O)c2ccc3c(c2)OC2CNCCC32)c1` (centres unmarked) [Example 159], the Ki is < 0.5 µM.

As for `O=S(=O)(c1cccnc1)c1ccc2c3c(oc2c1)CNCC3` [Example 438], the Ki is < 0.5 µM.

In the case of `O=S(=O)(c1ccc2c(c1)OC1CNCCC21)c1ccccc1OCC(F)(F)F` (centres unmarked) [Example 408], the Ki was < 0.5 µM.

`CC12CCNCC1Oc1ccc(OS(=O)(=O)c3ccccc3C(F)(F)F)cc12` (centres unmarked) [Example 779]: the Ki is > 1 µM.

In the case of `O=S(=O)(c1ccc(Cl)c(C(F)(F)F)c1)c1ccc2oc3c(c2c1)CCNC3` [Example 257], the inhibition constant (Ki) was < 0.5 µM.

With `O=S(=O)(Oc1ccc2c(c1)C1CCNCC1O2)c1ccc(OC(F)(F)F)cc1` (centres unmarked) [Example 744], the Ki was > 1 µM.

For the compound `[O-][S+](c1ccc2c3c(oc2c1)CNCC3)c1cc(F)ccc1F` (centres unmarked) [Example 222], the Ki was < 0.5 µM.

Turning to `O=S(=O)(c1ccc(-c2ccccc2)cc1)c1ccc2c3c(oc2c1)CNCC3` [Example 228], the Ki is 0.5 to 1 µM.

Regarding `O=S(=O)(c1cccc(OC(F)(F)F)c1)c1ccc2c(c1)OC1CNCCC21` (centres unmarked) [Example 160, 7-{[3-(trifluoromethoxy)phenyl]sulfo-nyl}-1,2,3,4,4a,9a-hexahydro[1]benzofuro[2,3-c]pyridine], the Ki is < 0.5 µM.

As for `O=S(=O)(c1cccc(F)c1)c1ccc2c3c(oc2c1)C(C(F)F)NCC3` (centres unmarked) [Example 509], the Ki was < 0.5 µM.

As to `O=S(=O)(c1cccc(C(F)(F)F)c1)c1ccc2c3c(oc2c1)CNCC3` [Example 192], the inhibition constant (Ki) was < 0.5 µM.

Regarding `O=S(=O)(c1cncc(F)c1)c1ccc2c3c(oc2c1)CNCC3` [Example 441], the Ki was < 0.5 µM.

Consider `O=S(=O)(c1cccc(Cl)c1)c1ccc2c3c(oc2c1)C1CCCCN1CC3` (centres unmarked) [Example 620], for which the Ki is < 0.5 µM.

For the compound `O=S(=O)(Oc1ccc2c(c1)C1CCNCC1O2)c1cccc2nsnc12` (centres unmarked) [Example 730], the inhibition constant (Ki) is > 1 µM.

As for `O=S(=O)(Oc1ccc2c(c1)C1CCNCC1O2)c1cc(Cl)cc(Cl)c1` (centres unmarked) [Example 739], the Ki is < 0.5 µM.

Take `COc1ccc(S(=O)(=O)c2ccc3oc4c(c3c2)CCNC4C)cc1F` (centres unmarked) [Example 285]: the Ki is > 1 µM.

For `O=S(=O)(Oc1ccc2c(c1)OC1CNCCC21)c1csc2ccccc12` (centres unmarked) [Example 665], the Ki is < 0.5 µM.

As for `O=S(=O)(c1cccc(OCC2CCCO2)c1)c1ccc2c(c1)OC1CNCCC21` (centres unmarked) [Example 577], the Ki was < 0.5 µM.

Regarding `O=S(=O)(Cc1ccc(C(F)(F)F)cc1)Oc1ccc2c(c1)C1CCNCC1O2` (centres unmarked) [Example 751], the inhibitory constant (Ki) was > 1 µM.

For `CC12CCNCC1Oc1cc(S(=O)(=O)c3cc[nH]c(=O)c3)ccc12` (centres unmarked) [Example 428], the inhibition constant Ki was > 1 µM.

As for `O=S(=O)(Nc1cccc(F)c1F)c1ccc2c(c1)C1CCNCC1O2` (centres unmarked) [Example 842], the inhibition constant (Ki) was > 1 µM.

On to `CC(C)(C)c1ccc(S(=O)(=O)Oc2ccc3c(c2)C2(C)CCNCC2O3)cc1` (centres unmarked) [Example 774], for which the Ki was > 1 µM.

In the case of `O=S(=O)(c1ccc2c(c1)OC1CNCCC21)c1cccc2cccnc12` (centres unmarked) [Example 333], the Ki is < 0.5 µM.

For the compound `CCN1CCC2c3ccc(OS(=O)(=O)c4ccc(Cl)cc4)cc3OC2C1` (centres unmarked) [Example 812], the Ki was > 1 µM.

On to `O=S(=O)(c1cccc(F)c1)c1ccc2c3c(oc2c1)C1(CCOC1)NCC3` (single isomer, unassigned) [Example 53, 7-[(3-fluorophenyl)sulfonyl]-3,4,4′,5′-tetrahydro-2H-spiro[1-benzofuro[2,3-c]pyridine-1,3′-furan]], for which the inhibitory constant (Ki) was < 0.5 µM.

In the case of `Cc1cccc([S+]([O-])c2ccc3c(c2)OC2CNCCC32)n1` (centres unmarked) [Example 327], the Ki is > 1 µM.

On to `CC(=O)NCCC1NCCc2c1oc1cc(S(=O)(=O)c3cccc(F)c3)ccc21` (racemic) [Example 536, N-(2-{7-[(3-fluorophenyl)sulfonyl]-1,2,3,4-tetrahydro[1]benzofuro[2,3-c]pyridin-1-yl}ethyl)acetamide], for which the Ki is < 0.5 µM.

For the compound `CNC(=O)c1c(F)cccc1S(=O)(=O)c1ccc2c(c1)OC1CNCCC21` (centres unmarked) [Example 477], the Ki was > 1 µM.

Take `Cc1c(Cl)cccc1S(=O)(=O)Oc1ccc2c(c1)C1CCNCC1O2` (centres unmarked) [Example 718]: the Ki is < 0.5 µM.

As for `O=S(=O)(c1ccc2oc3c(c2c1)CCNC3)c1ccccc1F` [Example 277], the Ki is < 0.5 µM.

In the case of `COc1ccc(S(=O)(=O)c2ccc3c4c(oc3c2)CNCC4)cc1F` [Example 194], the Ki is < 0.5 µM.

For `CC12CCNCC1Oc1ccc(OS(=O)(=O)c3ccc(-n4cccn4)cc3)cc12` (centres unmarked) [Example 776], the Ki was > 1 µM.

For the compound `O=S(=O)(c1cccc(F)c1)c1ccc2c3c(oc2c1)C1(CCOCC1)NCC3` [Example 43, 7-[(3-fluorophenyl)sulfonyl]-2′,3,3′,4,5′,6′-hexahydro-2H-spiro[1-benzofuro[2,3-c]pyridine-1,4′-pyran]], the Ki was < 0.5 µM.

Take `CC12CCNCC1Oc1ccc(OS(=O)(=O)c3ccc(Cl)cc3)cc12` (centres unmarked) [Example 757]: the Ki is > 1 µM.

Consider `CC(=O)N(C)CCC1NCCc2c1oc1ccc(S(=O)(=O)c3cccc(F)c3)cc21` (centres unmarked) [Example 534, N-(2-{6-[(3-Fluorophenyl)sulfonyl]-1,2,3,4-tetrahydro[1]benzofuro[2,3-c]pyridin-1-yl}ethyl)-N-methylacetamide], for which the Ki was < 0.5 µM.

Take `O=[N+]([O-])c1ccc(S(=O)(=O)c2ccc3c(c2)C2CCNCC2O3)cc1` (centres unmarked) [Example 177]: the Ki was > 1 µM.

For the compound `CC(=O)N1CCc2c(oc3cc(S(=O)(=O)c4cccc(Cl)c4)ccc23)C1` [Example 615, 1-{7-[(3-Chlorophenyl)sulfonyl]-3,4-dihydro[1]benzofuro[2,3-c]pyridin-2(1H)-yl}ethanone], the Ki is < 0.5 µM.

For `[O-][S+](c1ccc2c(c1)OC1CNCCC21)c1cccc(F)c1F` (centres unmarked) [Example 384], the Ki was < 0.5 µM.

On to `CC12CCNCC1Oc1ccc(OS(=O)(=O)c3cccc(C(F)(F)F)c3)cc12` (centres unmarked) [Example 780], for which the Ki was > 1 µM.

For `O=S(=O)(Nc1ccc2c(c1)C1CCNCC1O2)c1cccc2ccccc12` (centres unmarked) [Example 825], the Ki was < 0.5 µM.

The values are drawn from patent US8765779B2, “Tricyclic derivatives and their pharmaceutical use and compositions” (Cephalon, Inc., priority 2009, dated 2014).
